Experiment [1] concerns Listeria monocytogenes. Description: Antibacterial activity against Listeria monocytogenes isolated from humans harboring int-tn gene. It is filed as functional.
In experiment [2] the test system is Listeria monocytogenes. Description: Antibacterial activity against Listeria monocytogenes isolated from humans harboring tet(M) gene. Format: functional.
The subject of experiment [3] is Listeria monocytogenes. Description: Antibacterial activity against Listeria monocytogenes isolated from humans with putative chromosomal mutation. Format: functional.
Experiment [4] concerns Listeria monocytogenes. Description: Antibacterial activity against Listeria monocytogenes isolated from humans harboring mutant dfrD gene.
Experiment [5] has as its system Listeria monocytogenes. Description: Antibacterial activity against Listeria monocytogenes isolated from humans harboring putative ribosomal mutation. It is filed as functional.
In experiment [6] the test system is Listeria monocytogenes. Description: Antibacterial activity against Listeria monocytogenes isolated from humans harboring lde gene.
The subject of experiment [7] is Listeria monocytogenes. Description: Antibacterial activity against Listeria monocytogenes isolated from humans harboring cat gene. Format: functional.

Values after ≈ are worked out from the molar mass of the structure shown.

Consider `CN(C)c1ccc(O)c2c1C[C@H]1C[C@H]3[C@H](N(C)C)C(O)=C(C(N)=O)C(=O)[C@@]3(O)C(O)=C1C2=O` [MINOCYCLINE], for which the MIC in the experiment with Listeria monocytogenes [1] and in the experiment on Listeria monocytogenes [2] was 8 µg/mL (≈ 17.5 µM) in each case. In the case of `CC[C@H]1OC(=O)[C@H](C)[C@@H](O[C@H]2C[C@@](C)(OC)[C@@H](O)[C@H](C)O2)[C@H](C)[C@@H](O[C@@H]2O[C@H](C)C[C@H](N(C)C)[C@H]2O)[C@](C)(O)C[C@@H](C)C(=O)[C@H](C)[C@@H](O)[C@]1(C)O` [ERYTHROMYCIN], inhibition of growth in the experiment with Listeria monocytogenes [3] (MIC) required 256 µg/mL (≈ 349 µM).

In the experiment on Listeria monocytogenes [4], `COc1cc(Cc2cnc(N)nc2N)cc(OC)c1OC` [TRIMETHOPRIM] yielded an MIC of 1020 µg/mL (≈ 3530 µM). As to `CN[C@@H]1[C@H](O[C@H]2[C@H](O[C@H]3[C@H](O)[C@@H](O)[C@H](N=C(N)N)[C@@H](O)[C@@H]3N=C(N)N)O[C@@H](C)[C@]2(O)C=O)O[C@@H](CO)[C@H](O)[C@H]1O` [STREPTOMYCIN], it took 256 µg/mL (≈ 440 µM) to inhibit growth against Listeria monocytogenes [5] (MIC). Turning to `CN(C)[C@@H]1C(O)=C(C(N)=O)C(=O)[C@@]2(O)C(O)=C3C(=O)c4c(O)cccc4[C@@](C)(O)[C@H]3C[C@@H]12` [TETRACYCLINE], the MIC against Listeria monocytogenes [1] and with Listeria monocytogenes [2] was 16 µg/mL (≈ 36 µM) throughout. `O=C(O)c1cn(C2CC2)c2cc(N3CCNCC3)c(F)cc2c1=O` [CIPROFLOXACIN] displayed an MIC against Listeria monocytogenes [6] of over 6 µg/mL. Consider `O=C(N[C@H](CO)[C@H](O)c1ccc([N+](=O)[O-])cc1)C(Cl)Cl` [CHLORAMPHENICOL], for which the MIC in the experiment with Listeria monocytogenes [7] was found to be 48 µg/mL (≈ 149 µM).

(Values after ChEMBL document CHEMBL1671693, “Antimicrobial resistance of Listeria monocytogenes strains isolated from humans in France” (2010).)
